Source: ChEMBL document CHEMBL5724914, “Linking interpersonal differences in gut microbiota composition and drug biotransformation activity” (2024)

Columns and labels:
[1] = human gut metagenome, 24 h, 2 µM
[2] = (§1) The drug is tested on WLS-073 corresponding to human gut metagenome with ENA study accession number: PRJEB37062 and ENA sample accession number: ERS12561749 for biotransformation under anaerobic condition. The drug concentrations were measured over 9 timepoints collected between 0 and 24 hours of incubation by liquid-chromatography-coupled mass spectrometry (LC–MS); details: 2 µM
[3] = as §1, with “Z-026” for “WLS-073”, “to” for “to human gut”, “ERS12561825” for “ERS12561749”; details: 2 µM
[4] = human gut metagenome, 24 h, 2 µM; remark: listed apart in the source
[5] = as §1, with “Z-030” for “WLS-073”, “mouse” for “human”, “ERS12561829” for “ERS12561749”; details: 2 µM
[6] = human gut metagenome, 24 h, 2 µM; remark: listed apart in the source
[7] = human gut metagenome, 24 h, 2 µM; remark: listed apart in the source
[8] = human gut metagenome, 24 h, 2 µM; remark: listed apart in the source
[9] = human gut metagenome, 24 h, 2 µM; remark: listed apart in the source
[10] = human gut metagenome, 24 h, 2 µM; remark: listed apart in the source
[11] = as §1, with “Z-014” for “WLS-073”, “rat” for “human”, “ERS12561814” for “ERS12561749”; details: 2 µM
[12] = as §1, with “WLS-052” for “WLS-073”, “ERS12561747” for “ERS12561749”; details: 2 µM
[13] = human gut metagenome, 24 h, 2 µM; remark: listed apart in the source
[14] = human gut metagenome, 24 h, 2 µM; remark: listed apart in the source
[15] = human gut metagenome, 24 h, 2 µM; remark: listed apart in the source
[16] = human gut metagenome, 24 h, 2 µM; remark: listed apart in the source
[17] = as §1, with “WLS-370” for “WLS-073”, “ERS12561793” for “ERS12561749”; details: 2 µM
[18] = as §1, with “WLS-310” for “WLS-073”, “ERS12561785” for “ERS12561749”; details: 2 µM
[19] = as §1, with “WLS-077” for “WLS-073”, “ERS12561750” for “ERS12561749”; details: 2 µM
[20] = as §1, with “Z-001” for “WLS-073”, “mouse” for “human”, “ERS12561801” for “ERS12561749”; details: 2 µM
Note: call rule not given here.

Compound	Bacterial Biotransformation [1]	Bacterial Biotransformation [2]	Bacterial Biotransformation [3]	Bacterial Biotransformation [4]	Bacterial Biotransformation [5]	Bacterial Biotransformation [6]	Bacterial Biotransformation [7]	Bacterial Biotransformation [8]	Bacterial Biotransformation [9]	Bacterial Biotransformation [10]	Bacterial Biotransformation [11]	Bacterial Biotransformation [12]	Bacterial Biotransformation [13]	Bacterial Biotransformation [14]	Bacterial Biotransformation [15]	Bacterial Biotransformation [16]	Bacterial Biotransformation [17]	Bacterial Biotransformation [18]	Bacterial Biotransformation [19]	Bacterial Biotransformation [20]
CN1CCc2c(c3ccccc3n2Cc2ccccc2)C1.CN1CCc2c(c3ccccc3n2Cc2ccccc2)C1.O=S(=O)(O)c1cccc2c(S(=O)(=O)O)cccc12	Compound NOT metabolized	Compound NOT metabolized	Compound NOT metabolized	Compound metabolized	Compound NOT metabolized	Compound metabolized	Compound NOT metabolized	Compound metabolized	Compound NOT metabolized	Compound NOT metabolized	Compound NOT metabolized	Compound NOT metabolized	Compound metabolized	Compound NOT metabolized	Compound NOT metabolized	Compound NOT metabolized	Compound metabolized	Compound NOT metabolized	Compound NOT metabolized	Compound NOT metabolized
NC12CC3CC(CC(C3)C1)C2 [AMANTADINE]	Compound NOT metabolized	Compound NOT metabolized	Compound NOT metabolized	Compound NOT metabolized	Compound NOT metabolized	Compound NOT metabolized	Compound NOT metabolized	Compound NOT metabolized	Compound NOT metabolized	Compound NOT metabolized	Compound NOT metabolized	Compound NOT metabolized	Compound NOT metabolized	Compound NOT metabolized	Compound NOT metabolized	Compound NOT metabolized	Compound NOT metabolized	Compound NOT metabolized	Compound NOT metabolized	Compound NOT metabolized
O=P(O)(O)O.c1ccc(CN(CC2=NCCN2)c2ccccc2)cc1 [ANTAZOLINE PHOSPHATE]	Compound NOT metabolized	Compound NOT metabolized	Compound NOT metabolized	Compound NOT metabolized	Compound NOT metabolized	Compound NOT metabolized	Compound NOT metabolized	Compound NOT metabolized	Compound NOT metabolized	Compound metabolized	Compound NOT metabolized	Compound NOT metabolized	Compound NOT metabolized	Compound NOT metabolized	Compound metabolized	Compound metabolized	Compound metabolized	Compound NOT metabolized	Compound NOT metabolized	Compound NOT metabolized
CN1CCC(=C2c3ccccc3CCc3cccnc32)CC1.O=C(O)/C=C\C(=O)O.O=C(O)/C=C\C(=O)O [AZATADINE MALEATE]	Compound NOT metabolized	Compound NOT metabolized	Compound NOT metabolized	Compound NOT metabolized	Compound NOT metabolized	Compound NOT metabolized	Compound metabolized	Compound NOT metabolized	Compound NOT metabolized	Compound NOT metabolized	Compound NOT metabolized	Compound NOT metabolized	Compound NOT metabolized	Compound NOT metabolized	Compound NOT metabolized	Compound NOT metabolized	Compound NOT metabolized	Compound NOT metabolized	Compound NOT metabolized	Compound NOT metabolized

Results, then the compound that gave them:

Bacterial Biotransformation [1]	Bacterial Biotransformation [2]	Bacterial Biotransformation [3]	Bacterial Biotransformation [4]	Bacterial Biotransformation [5]	Bacterial Biotransformation [6]	Bacterial Biotransformation [7]	Bacterial Biotransformation [8]	Bacterial Biotransformation [9]	Bacterial Biotransformation [10]	Bacterial Biotransformation [11]	Bacterial Biotransformation [12]	Bacterial Biotransformation [13]	Bacterial Biotransformation [14]	Bacterial Biotransformation [15]	Bacterial Biotransformation [16]	Bacterial Biotransformation [17]	Bacterial Biotransformation [18]	Bacterial Biotransformation [19]	Bacterial Biotransformation [20]	Compound
Compound NOT metabolized	Compound NOT metabolized	Compound NOT metabolized	Compound NOT metabolized	Compound NOT metabolized	Compound NOT metabolized	Compound NOT metabolized	Compound NOT metabolized	Compound NOT metabolized	Compound NOT metabolized	Compound NOT metabolized	Compound NOT metabolized	Compound NOT metabolized	Compound NOT metabolized	Compound NOT metabolized	Compound NOT metabolized	Compound NOT metabolized	Compound NOT metabolized	Compound NOT metabolized	Compound NOT metabolized	Cc1cc2c(cc1S(N)(=O)=O)S(=O)(=O)CCC2
Compound metabolized	Compound metabolized	Compound NOT metabolized	Compound metabolized	Compound NOT metabolized	Compound metabolized	Compound metabolized	Compound metabolized	Compound NOT metabolized	Compound metabolized	Compound NOT metabolized	Compound metabolized	Compound metabolized	Compound NOT metabolized	Compound NOT metabolized	Compound metabolized	Compound metabolized	Compound metabolized	Compound NOT metabolized	Compound metabolized	COc1cc2nc(N(C)CCCNC(=O)C3CCCO3)nc(N)c2cc1OC (stereo not given) [ALFUZOSIN]
Compound NOT metabolized	Compound NOT metabolized	Compound NOT metabolized	Compound NOT metabolized	Compound NOT metabolized	Compound metabolized	Compound NOT metabolized	Compound metabolized	Compound NOT metabolized	Compound metabolized	Compound NOT metabolized	Compound NOT metabolized	Compound NOT metabolized	Compound NOT metabolized	Compound NOT metabolized	Compound NOT metabolized	Compound metabolized	Compound metabolized	Compound NOT metabolized	Compound NOT metabolized	CC(C)(C#N)c1cc(Cn2cncn2)cc(C(C)(C)C#N)c1 [ANASTROZOLE]
Compound metabolized	Compound NOT metabolized	Compound metabolized	Compound metabolized	Compound NOT metabolized	Compound metabolized	Compound metabolized	Compound metabolized	Compound NOT metabolized	Compound metabolized	Compound NOT metabolized	Compound metabolized	Compound metabolized	Compound metabolized	Compound metabolized	Compound metabolized	Compound metabolized	Compound metabolized	Compound NOT metabolized	Compound metabolized	CC(=O)OCC(=O)[C@@]1(O)[C@@H](C)C[C@H]2[C@@H]3CCC4=CC(=O)C=C[C@]4(C)[C@@]3(F)[C@@H](O)C[C@@]21C [BETAMETHASONE ACETATE]
